Measurements as given in the supplement of paper PMC11208160.

assay: recombinant barcode read abundance after kanamycin selection (control-corrected) (log10(CPM+1)); higher = more efficient recombination; sequences stand for … in AGTGCAGAGAAAATCGGCCAGTTTTCTCTGCCTGCAGTCCGCATGCCGT…AGATTTATGCAGCGGACTGCCTTTCTCCCAAAGTGATAAACCGGACAGTATCATGGACCGGTTTTCCCGGTAATCCGTATTTGCAAGGTTGGTTTCACT; site = the 11-nt target
Outline: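 Targets and IS621 bridge RNA target-binding loops were paired in oligos, each with a promoter, a barcode and the J23119-driven first 104 bridge RNA bases. A vector carrying the remaining 73 bp and a T7-inducible recombinase received these by Gibson cloning, and the pool was co-electroporated into E. coli with a donor plasmid. Duplicate plates contained chloramphenicol/ampicillin LB agar (control) or chloramphenicol/ampicillin/kanamycin with 0.1 mM IPTG. Recombination efficiency comes from averaged, control-corrected counts per million of recombinant-junction barcodes, reported as log10(CPM+1).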
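Note: IS621 recombinase and bridge RNA in Escherichia coli cells.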

Sequence | recombinant barcode read abundance (log10)
AGCCGTACTTGGGTTCTAACCTGTTGCCT (site AGGCGTACTAG) | 0.318
AGCCGTACTTGGGTTCTAACCTGTTGCCT (site AGTCGTACTAG) | 0.0183
AGCCTGCCTTGGGTTCTAACCTGTTGCCT (site AGCCTGACTAG) | 0.0617
AGCCTGCCTTGGGTTCTAACCTGTTGCCT (site AGCCTGCCTAG) | 0.389
AGCCTGCCTTGGGTTCTAACCTGTTGCCT (site AGCCTGGCTAG) | 0.549
AGCCTGCCTTGGGTTCTAACCTGTTGCCT (site AGCCTGTCTAG) | 0.0826
AGCCTGTCTTGGGTTCTAACCTGTTGCCT (site AGCCTGACTAG) | 0.444
AGCCTGTCTTGGGTTCTAACCTGTTGCCT (site AGCCTGCCTAG) | 0
AGCCTGTCTTGGGTTCTAACCTGTTGCCT (site AGCCTGGCTAG) | 0.143
AGCCTGTCTTGGGTTCTAACCTGTTGCCT (site AGCCTGTCTAG) | 1.36
AGCGAATCTTGGGTTCTAACCTGTTGCCG (site AGCGAATCTCG) | 0.217
AGCGAATCTTGGGTTCTAACCTGTTGCCG (site GAGCGTCCTTA) | 0.232
AGCGCGACTTGGGTTCTAACCTGTTGCCT (site AGCGCGACTAG) | 0.381
AGCGCGACTTGGGTTCTAACCTGTTGCCT (site AGGACGACTAG) | 0.338
AGCGCTCCTTGGGTTCTAACCTGTTGCGT (site AGCCCTCCTAT) | 0.532
AGCGCTCCTTGGGTTCTAACCTGTTGCGT (site AGCGCTCCTAC) | 0.646
AGCGGGCCTTGGGTTCTAACCTGTTGCCT (site AGCGGACCTAG) | 0.382
AGCGGGCCTTGGGTTCTAACCTGTTGCCT (site AGCGGCCCTAG) | 1.08
AGCGGGCCTTGGGTTCTAACCTGTTGCCT (site AGCGGGCCTAG) | 0.313
AGCGGGCCTTGGGTTCTAACCTGTTGCCT (site AGCGGTCCTAG) | 0.072
AGCTAAACTTGGGTTCTAACCTGTTGCCT (site AGCTAAACTAG) | 0.256
AGCTAAACTTGGGTTCTAACCTGTTGCCT (site AGCTTATCTAG) | 0.141

Sequence | recombinant barcode read abundance (log10)
AGCTACTCTTGGGTTCTAACCTGTTGCTT (site AGCTACTCTAA) | 0.694
AGCTACTCTTGGGTTCTAACCTGTTGCTT (site AGTTAATCTAA) | 0.144
AGCTCATCTTGGGTTCTAACCTGTTGCCT (site AGCTCACCTAG) | 0.0516
AGCTCATCTTGGGTTCTAACCTGTTGCCT (site AGCTCATCTAG) | 0.0912
AGCTTAGCTTGGGTTCTAACCTGTTGCCG (site AGCTTAGCTAG) | 0.14
AGCTTAGCTTGGGTTCTAACCTGTTGCCG (site AGCTTAGCTCG) | 0.19
AGCTTAGCTTGGGTTCTAACCTGTTGCCG (site AGCTTAGCTGG) | 0.0372
AGCTTAGCTTGGGTTCTAACCTGTTGCCG (site AGCTTAGCTTG) | 0.188
AGGAATTCTTGGGTTCTAACCTGTTGCCT (site AGAAATTCTAG) | 0.443
AGGAATTCTTGGGTTCTAACCTGTTGCCT (site AGCAATTCTAG) | 0.356
AGGAATTCTTGGGTTCTAACCTGTTGCCT (site AGGAATTCTAG) | 1.59
AGGAATTCTTGGGTTCTAACCTGTTGCCT (site AGTAATTCTAG) | 0
AGGACTTCTTGGGTTCTAACCTGTTGCCT (site AGGACTTCTAG) | 0.618
AGGACTTCTTGGGTTCTAACCTGTTGCCT (site AGGATTACTAG) | 0.704
AGGAGCCCTTGGGTTCTAACCTGTTGCTG (site AGGAGCCCTAA) | 0.0752
AGGAGCCCTTGGGTTCTAACCTGTTGCTG (site AGGAGCCCTCA) | 1.75
AGGAGCCCTTGGGTTCTAACCTGTTGCTG (site AGGAGCCCTGA) | 0.0914
AGGAGCCCTTGGGTTCTAACCTGTTGCTG (site AGGAGCCCTTA) | 0.194
AGGAGCTCTTGGGTTCTAACCTGTTGCTA (site AGGAACTCTAA) | 0.131
AGGAGCTCTTGGGTTCTAACCTGTTGCTA (site AGGAGCTCTTA) | 1.27
AGGATAACTTGGGTTCTAACCTGTTGCCT (site AGGATAACTAG) | 0.655
AGGATAACTTGGGTTCTAACCTGTTGCCT (site AGGATACCTAG) | 0

Sequence | recombinant barcode read abundance (log10)
AGGATACCTTGGGTTCTAACCTGTTGCCT (site AGGATAACTAG) | 0.219
AGGATACCTTGGGTTCTAACCTGTTGCCT (site AGGATACCTAG) | 1.56
AGGATATCTTGGGTTCTAACCTGTTGCCT (site AAGATATCTAG) | 0.114
AGGATATCTTGGGTTCTAACCTGTTGCCT (site ACGATATCTAG) | 0.14
AGGATATCTTGGGTTCTAACCTGTTGCCT (site AGGATATCTAG) | 0.559
AGGATATCTTGGGTTCTAACCTGTTGCCT (site ATGATATCTAG) | 0.261
AGGATCCCTTGGGTTCTAACCTGTTGCAT (site AGGATCCCTAT) | 1.99
AGGATCCCTTGGGTTCTAACCTGTTGCAT (site AGGATCCCTCT) | 1.07
AGGATTACTTGGGTTCTAACCTGTTGCCT (site AGGACTTCTAG) | 0.161
AGGATTACTTGGGTTCTAACCTGTTGCCT (site AGGATTACTAG) | 0.641
AGGCACTCTTGGGTTCTAACCTGTTGCTG (site AGGCACTCTCA) | 2.35
AGGCACTCTTGGGTTCTAACCTGTTGCTG (site TGGCACTCTAA) | 0.0921
AGGCATCCTTGGGTTCTAACCTGTTGCCT (site AAGCATCCTAG) | 0.32
AGGCATCCTTGGGTTCTAACCTGTTGCCT (site ACGCATCCTAG) | 0.202
AGGCATCCTTGGGTTCTAACCTGTTGCCT (site AGGCATCCTAG) | 0.147
AGGCATCCTTGGGTTCTAACCTGTTGCCT (site ATGCATCCTAG) | 0.0852
AGGCCGCCTTGGGTTCTAACCTGTTGCCG (site AGGCCGCCTCG) | 1.17
AGGCCGCCTTGGGTTCTAACCTGTTGCCG (site AGGCCGGCTCG) | 0.178
AGGGAGACTTGGGTTCTAACCTGTTGCCA (site AGGAAGACTTG) | 1.63
AGGGAGACTTGGGTTCTAACCTGTTGCCA (site AGGCAGACTTG) | 0.0382
AGGGAGACTTGGGTTCTAACCTGTTGCCA (site AGGGAGACTTG) | 2.49
AGGGAGACTTGGGTTCTAACCTGTTGCCA (site AGGTAGACTTG) | 0.0182
